The source of these data is patent US8268859B2, “Glucocorticoid mimetics, methods of making them, pharmaceutical compositions and uses thereof” (Boehringer Ingelheim International GmbH, priority 2008, dated 2012).

Data set [1] in a line: Human microsomal stability. Particulars: pH 7.4; human liver microsomes; read-out: human liver microsome half life. In kind it is in vitro ADME. (In general: Liver microsomes are a subcellular fraction often used to study metabolism.)
Another data set deals with T1, Potassium Channel HERG (Homo sapiens, UniProt Q12809).
T1 construct: expressed in transfected cells; host or cells: HEK-293 cells
Nature of the data set: hERG assays (either hERG binding assay or hERG patch clamp assay). In kind it is cell-based. Particulars: Table 3, not specified per compound. On the technique in general: hERG is a cardiac potassium channel; its block is linked to QT prolongation.

Data set [2] can be described thus: High throughput solubility. Format: physicochemical. To be noted: aqueous buffer (pION system solution), pH 7, aqueous buffer, kinetic from dmso stock.
In another data set the target is human recombinant CYP3A4 (Homo sapiens, UniProt P08684). The experiment in a line: Cytochrome P450 inhibition assay (substrate 7-benzyloxy-4-(trifluoromethyl)coumarin).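 Note: compounds preincubated at least 10 min at 37 °C before adding enzyme plus substrate, reaction run 30 min at 37 °C, ketoconazole standard curve on every plate.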 Format: in vitro ADME.
Data set [3] concerns the target T2, human glucocorticoid receptor (GR) complex (Homo sapiens, UniProt P04150).
T2 construct: made in house; host or cells: insect expression system (baculovirus lysate)
T2 sequence (P04150 1-777): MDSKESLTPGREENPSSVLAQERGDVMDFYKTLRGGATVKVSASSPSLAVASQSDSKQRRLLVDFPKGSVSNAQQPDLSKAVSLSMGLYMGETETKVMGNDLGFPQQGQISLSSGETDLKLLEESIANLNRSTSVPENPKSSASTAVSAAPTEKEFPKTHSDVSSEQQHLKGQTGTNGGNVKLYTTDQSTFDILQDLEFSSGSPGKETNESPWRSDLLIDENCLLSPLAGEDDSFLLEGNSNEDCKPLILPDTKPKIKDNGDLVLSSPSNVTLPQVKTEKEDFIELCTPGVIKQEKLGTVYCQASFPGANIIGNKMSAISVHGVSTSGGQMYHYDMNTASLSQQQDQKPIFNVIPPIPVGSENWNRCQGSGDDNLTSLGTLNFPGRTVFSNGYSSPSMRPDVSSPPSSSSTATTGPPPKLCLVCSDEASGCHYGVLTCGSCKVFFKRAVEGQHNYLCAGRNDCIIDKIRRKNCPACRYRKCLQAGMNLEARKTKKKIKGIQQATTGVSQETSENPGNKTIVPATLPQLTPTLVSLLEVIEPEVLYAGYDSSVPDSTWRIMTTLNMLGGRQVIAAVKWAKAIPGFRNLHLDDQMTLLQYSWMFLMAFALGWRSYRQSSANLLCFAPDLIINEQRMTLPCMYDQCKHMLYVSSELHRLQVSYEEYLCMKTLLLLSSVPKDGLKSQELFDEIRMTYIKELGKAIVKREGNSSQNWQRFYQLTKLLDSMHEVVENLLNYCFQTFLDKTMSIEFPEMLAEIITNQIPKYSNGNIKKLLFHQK
The experiment in a line: Glucocorticoid receptor fluorescence polarization competitive binding assay.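 Note: GR complex expressed in an insect system, wells lacking compound give full signal, excess unlabeled dexamethasone defines the blank, IC50 from logistic curve fit of polarization.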 Background: Fluorescence polarisation rises when a labelled molecule tumbles more slowly, as on binding a larger partner.

Setting [4] is: Table 1, competition with TAMRA-labeled dexamethasone, read-out: GR IC50.

Structures are written as SMILES. Values after ≈ are worked out from the molar mass of the structure shown. Where two headings read alike, the source gives them in different places. Where only a bound is given, the exact number is not on record here.

T1 sequence (Q12809 whole entry): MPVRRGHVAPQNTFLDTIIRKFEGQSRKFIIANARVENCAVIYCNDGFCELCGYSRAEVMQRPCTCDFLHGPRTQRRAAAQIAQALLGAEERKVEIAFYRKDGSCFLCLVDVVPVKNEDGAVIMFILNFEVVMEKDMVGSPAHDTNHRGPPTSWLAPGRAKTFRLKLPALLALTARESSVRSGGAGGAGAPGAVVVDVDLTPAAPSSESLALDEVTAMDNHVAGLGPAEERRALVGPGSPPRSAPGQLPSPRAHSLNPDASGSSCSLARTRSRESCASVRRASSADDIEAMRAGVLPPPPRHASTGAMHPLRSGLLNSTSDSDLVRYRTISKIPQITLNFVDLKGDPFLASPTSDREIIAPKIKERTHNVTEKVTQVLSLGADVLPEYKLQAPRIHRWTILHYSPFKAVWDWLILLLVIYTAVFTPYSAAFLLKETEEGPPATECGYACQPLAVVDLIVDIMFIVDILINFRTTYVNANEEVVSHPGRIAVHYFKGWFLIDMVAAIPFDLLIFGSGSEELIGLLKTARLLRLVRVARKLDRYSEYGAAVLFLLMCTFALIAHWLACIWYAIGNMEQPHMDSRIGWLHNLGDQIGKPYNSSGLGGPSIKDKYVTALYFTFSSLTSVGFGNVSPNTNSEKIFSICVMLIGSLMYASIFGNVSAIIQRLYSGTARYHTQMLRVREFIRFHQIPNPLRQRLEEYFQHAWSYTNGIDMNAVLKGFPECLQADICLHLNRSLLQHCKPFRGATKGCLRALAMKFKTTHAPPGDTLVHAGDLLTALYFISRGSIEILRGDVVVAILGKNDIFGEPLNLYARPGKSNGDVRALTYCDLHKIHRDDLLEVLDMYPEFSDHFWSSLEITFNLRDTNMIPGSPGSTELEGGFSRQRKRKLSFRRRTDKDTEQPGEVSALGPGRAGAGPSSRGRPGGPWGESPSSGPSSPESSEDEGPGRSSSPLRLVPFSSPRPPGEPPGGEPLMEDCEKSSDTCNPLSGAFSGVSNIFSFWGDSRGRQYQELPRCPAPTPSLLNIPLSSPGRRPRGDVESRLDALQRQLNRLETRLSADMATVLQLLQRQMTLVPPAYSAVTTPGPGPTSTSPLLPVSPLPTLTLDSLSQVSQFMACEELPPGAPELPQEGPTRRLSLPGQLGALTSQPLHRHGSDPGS
human recombinant CYP3A4, sequence (P08684 whole entry): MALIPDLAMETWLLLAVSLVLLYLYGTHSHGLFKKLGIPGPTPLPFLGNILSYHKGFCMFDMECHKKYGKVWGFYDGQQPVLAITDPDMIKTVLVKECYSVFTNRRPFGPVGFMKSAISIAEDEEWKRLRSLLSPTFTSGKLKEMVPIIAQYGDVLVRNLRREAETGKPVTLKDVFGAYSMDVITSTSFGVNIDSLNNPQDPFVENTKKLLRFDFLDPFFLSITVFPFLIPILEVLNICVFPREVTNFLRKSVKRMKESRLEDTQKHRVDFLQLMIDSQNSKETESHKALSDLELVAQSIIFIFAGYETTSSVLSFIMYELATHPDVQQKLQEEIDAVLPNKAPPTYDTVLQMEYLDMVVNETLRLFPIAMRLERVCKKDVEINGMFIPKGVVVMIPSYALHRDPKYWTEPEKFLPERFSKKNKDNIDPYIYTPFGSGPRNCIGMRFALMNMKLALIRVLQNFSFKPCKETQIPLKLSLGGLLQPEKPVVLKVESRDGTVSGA

With `CCS(=O)(=O)c1cc2cc(CC(O)(CC(C)(C)c3ccc(F)cc3S(C)(=O)=O)C(F)(F)F)[nH]c2cn1` (centres unmarked) [drawing 99], the half-life in data set [1] is 7 min. In addition, the concentration for half-maximal inhibition (IC50) on Potassium Channel HERG was over 30000 nM. Besides, in data set [2], the solubility worked out at 52 µg/mL (≈ 94.4 µM).
As to `CC(C)(C[C@@](O)(Cc1cc2cc(S(C)(=O)=O)ncc2[nH]1)C(F)(F)F)c1cc(Cl)cc2c1OCC2` [drawing 3, (R)-4-(5-Chloro-2,3-dihydrobenzofuran-7-yl)-1,1,1-trifluoro-2-(5-methanesulfonyl-1H-pyrrolo[2,3-c]pyridin-2-ylmethyl)-4-methylpentan-2-ol], the IC50 on human recombinant CYP3A4 (Table 1, read-out: CYP3A4 IC50) worked out at 6500 nM; in data set [3] (setting [4]), 6 nM.
Taken in the same sequence, the figures for `CC(C)(CC(O)(Cc1cc2cc(S(C)(=O)=O)ncc2[nH]1)C(F)(F)F)c1cc(Br)ccc1O` (centres unmarked) [4-Bromo-2-[4,4,4-trifluoro-3-hydroxy-3-(5-methanesulfonyl-1H-pyrrolo[2,3-c]pyridin-2-ylmethyl)-1,1-dimethylbutyl]phenol] were 5600 nM and 7 nM.
As for `CC(C)(C[C@@](O)(Cc1cc2cc(S(C)(=O)=O)ncc2[nH]1)C(F)(F)F)c1ccc(F)cc1S(C)(=O)=O` [drawing 100], the half-life in data set [1] was found to be 14 min. Besides, the IC50 at Potassium Channel HERG is over 30000 nM. In data set [2], this compound displayed a solubility of over 100 µg/mL.
As to `CCS(=O)(=O)c1cc2cc(CC(O)(CC(C)(C)c3cccc4c3S(=O)(=O)C=C4)C(F)(F)F)[nH]c2cn1` (centres unmarked) [4-(1,1-Dioxo-1H-1λ^6-benzo[b]thiophen-7-yl)-2-(5-ethanesulfonyl-1H-pyrrolo[2,3-c]pyridin-2-ylmethyl)-1,1,1-trifluoro-4-methylpentan-2-ol], the IC50 was 4100 nM on human recombinant CYP3A4 (Table 1, read-out: CYP3A4 IC50) and 58 nM in data set [3] (setting [4]).
In the case of `CCCS(=O)(=O)c1cc2cc(CC(O)(CC(C)(C)c3ccccc3S(C)(=O)=O)C(F)(F)F)[nH]c2cn1` (centres unmarked) [1,1,1-Trifluoro-4-(2-methanesulfonylphenyl)-4-methyl-2-[5-(propane-1-sulfonyl)-1H-pyrrolo[2,3-c]pyridin-2-ylmethyl]pentan-2-ol], the IC50 was 1600 nM at human recombinant CYP3A4 (Table 1, read-out: CYP3A4 IC50) and 24 nM in data set [3].
Taken in the same sequence, the figures for `CC(C)(CC(O)(Cc1cc2cc(S(C)(=O)=O)ncc2[nH]1)C(F)(F)F)c1cccc2ccsc12` (centres unmarked) [4-Benzo[b]thiophen-7-yl-1,1,1-trifluoro-2-(5-methanesulfonyl-1H-pyrrolo[2,3-c]pyridin-2-ylmethyl)-4-methylpentan-2-ol] were 2700 nM and 10 nM.
As to `CC(C)(C[C@@](O)(Cc1cc2cc(S(C)(=O)=O)ncc2[nH]1)C(F)(F)F)c1ccccc1C(N)=O`, in data set [1], the half-life worked out at 44 min. On Potassium Channel HERG, this compound yielded an IC50 of over 30000 nM. In data set [2], this compound registered a solubility of 17 µg/mL (≈ 35.2 µM).
As for `CC(C)(CC(O)(Cc1cc2cc(S(C)(=O)=O)ncc2[nH]1)C(F)(F)F)c1ccccc1Br` (centres unmarked) [4-(2-Bromophenyl)-1,1,1-trifluoro-2-(5-methanesulfonyl-1H-pyrrolo[2,3-c]pyridin-2-ylmethyl)-4-methylpentan-2-ol], the half-inhibitory concentration (IC50) at human recombinant CYP3A4 (Table 1, read-out: CYP3A4 IC50) worked out at 23000 nM; in data set [3] (setting [4]) it was 7 nM.
For `CC(C)(CC(O)(Cc1cc2cc(S(C)(=O)=O)ncc2[nH]1)C(F)(F)F)c1ccccc1S(C)(=O)=O` (centres unmarked), in data set [1], the half-life was under 3 min. For the same compound, the concentration in solution in data set [2] (solubility) came to 59 µg/mL (≈ 114 µM).
Regarding `CC(C)S(=O)(=O)c1cc2cc(CC(O)(CC(C)(C)c3cccc(F)c3S(C)(=O)=O)C(F)(F)F)[nH]c2cn1` (centres unmarked) [1,1,1-Trifluoro-4-(3-fluoro-2-methanesulfonylphenyl)-4-methyl-2-[5-(propane-2-sulfonyl)-1H-pyrrolo[2,3-c]pyridin-2-ylmethyl]pentan-2-ol], the IC50 at human recombinant CYP3A4 (Table 1, read-out: CYP3A4 IC50) was over 30000 nM; in data set [3] (setting [4]) it was 210 nM.
`CC(C)(C[C@@](O)(Cc1cc2nc(S(C)(=O)=O)ncc2[nH]1)C(F)(F)F)c1ccc(F)cc1C(N)=O` [5-Fluoro-2-[(R)-4,4,4-trifluoro-3-hydroxy-3-(2-methanesulfonyl-5H-pyrrolo[3,2-d]pyrimidin-6-ylmethyl)-1,1-dimethylbutyl]benzamide]: the IC50 on human recombinant CYP3A4 (Table 1, read-out: CYP3A4 IC50) stood at 11000 nM; in data set [3] (setting [4]), 210 nM.
Take `CC(C)(CC(O)(Cc1cc2nc(S(C)(=O)=O)ccc2[nH]1)C(F)(F)F)c1cc(Cl)ccc1S(C)(=O)=O` (centres unmarked) [4-(5-Chloro-2-methanesulfonylphenyl)-1,1,1-trifluoro-2-(5-methanesulfonyl-1H-pyrrolo[3,2-b]pyridin-2-ylmethyl)-4-methylpentan-2-ol]: the 50% inhibitory concentration (IC50) turned out to be 4100 nM at human recombinant CYP3A4 (Table 1, read-out: CYP3A4 IC50) and 8 nM in data set [3].
For `CC(C)(CC(O)(Cc1cc2nc(S(C)(=O)=O)ccc2[nH]1)C(F)(F)F)c1cccc(F)c1S(C)(=O)=O` (centres unmarked) [1,1,1-Trifluoro-4-(3-fluoro-2-methanesulfonylphenyl)-2-(5-meethanesulfonyl-1H-pyrrolo[3,2-b]pyridin-2-ylmethyl)-4-methylpentan-2-ol], the IC50 worked out at 12000 nM on human recombinant CYP3A4 (Table 1, read-out: CYP3A4 IC50) and 65 nM in data set [3] (setting [4]).
For `CC(C)(C[C@@](O)(Cc1cc2cc(S(C)(=O)=O)ncc2[nH]1)C(F)(F)F)c1ccc(Cl)cc1S(C)(=O)=O` [drawing 97], in data set [1], the half-life came to 17 min. The same compound gave a concentration for half-maximal inhibition (IC50) on Potassium Channel HERG of over 10000 nM. In data set [2], this compound had a solubility of 40 µg/mL (≈ 72.3 µM).
As for `CC(C)(C[C@@](O)(Cc1cc2cc(S(C)(=O)=O)ncc2[nH]1)C(F)(F)F)c1cc(Cl)cc2c1OCC2` [drawing 95], the IC50 worked out at 6500 nM on human recombinant CYP3A4 (Table 3, read-out: CYP3A4 Inhibition IC50) and 9400 nM on Potassium Channel HERG. In addition, in data set [1], the half-life is under 3 min.
With `CCCS(=O)(=O)c1cc2cc(CC(O)(CC(C)(C)c3cc(Cl)ccc3S(C)(=O)=O)C(F)(F)F)[nH]c2cn1` (centres unmarked) [4-(5-Chloro-2-methanesulfonylphenyl)-1,1,1-trifluoro-4-methyl-2-[5-(propane-1-sulfonyl)-1H-pyrrolo[2,3-c]pyridin-2-ylmethyl]pentan-2-ol], the IC50 at human recombinant CYP3A4 (Table 1, read-out: CYP3A4 IC50) amounted to 900 nM; in data set [3] (setting [4]), 14 nM.
For `CC(C)(CC(O)(Cc1cc2cc(S(C)(=O)=O)ncc2[nH]1)C(F)(F)F)c1cccc2c1S(=O)(=O)C=C2` (centres unmarked) [4-(1,1-Dioxo-1H-1λ^6-benzo[b]thiophen-7-yl)-1,1,1-trifluoro-2-(5-methanesulfonyl-1H-pyrrolo[2,3-c]pyridin-2-ylmethyl)-4-methylpentan-2-ol], the half-maximal inhibitory concentration (IC50) was determined as 7400 nM at human recombinant CYP3A4 (Table 1, read-out: CYP3A4 IC50) and 89 nM in data set [3] (setting [4]).
In the same order, the values of `CC(C)S(=O)(=O)c1cc2cc(CC(O)(CC(C)(C)c3ccc(F)cc3S(C)(=O)=O)C(F)(F)F)[nH]c2cn1` (centres unmarked) [1,1,1-Trifluoro-4-(4-fluoro-2-methanesulfonylphenyl)-4-methyl-2-[5-(propane-2-sulfonyl)-1H-pyrrolo[2,3-c]pyridin-2-ylmethyl]pentan-2-ol] are 19000 nM and 53 nM.
Take `CC(C)(CC(O)(Cc1cc2cc(S(C)(=O)=O)ncc2[nH]1)C(F)(F)F)c1cccc(F)c1S(C)(=O)=O` (centres unmarked) [1,1,1-Trifluoro-4-(3-fluoro-2-methanesulfonylphenyl)-2-(5-methanesulfonyl-1H-pyrrolo[2,3-c]pyridin-2-ylmethyl)-4-methylpentan-2-ol]: the 50% inhibitory concentration (IC50) on human recombinant CYP3A4 (Table 1, read-out: CYP3A4 IC50) was over 30000 nM; in data set [3] (setting [4]), 62 nM.
Taken in the same sequence, the figures for `CCS(=O)(=O)c1cc2cc(C[C@](O)(CC(C)(C)c3cc(Cl)cc4c3OCC4)C(F)(F)F)[nH]c2cn1` [(R)-4-(5-Chloro-2,3-dihydrobenzofuran-7-yl)-2-(5-ethanesulfonyl-1H-pyrrolo[2,3-c]pyridin-2-ylmethyl)-1,1,1-trifluoro-4-methylpentan-2-ol] were 1800 nM and 7 nM.
Take `CCS(=O)(=O)c1cc2cc(C[C@](O)(CC(C)(C)c3ccc(F)cc3C(N)=O)C(F)(F)F)[nH]c2cn1`: the half-life in data set [1] was over 300 min. This compound registered a solubility in data set [2] of over 100 µg/mL.
With `CCS(=O)(=O)c1cc2cc(CC(O)(CC(C)(C)c3ccc(Cl)cc3S(C)(=O)=O)C(F)(F)F)[nH]c2cn1` (centres unmarked) [drawing 98], the half-life in data set [1] came out at 11 min. In addition, the concentration for half-maximal inhibition (IC50) at Potassium Channel HERG is over 10000 nM. This compound also displayed a solubility in data set [2] of 18 µg/mL (≈ 31.7 µM).
For the compound `CC(C)(C[C@@](O)(Cc1cc2nc(S(C)(=O)=O)ccc2[nH]1)C(F)(F)F)c1cccc(Br)c1` [(R)-4-(3-Bromophenyl)-1,1,1-trifluoro-2-(5-methanesulfonyl-1H-pyrrolo[3,2-b]pyridin-2-ylmethyl)-4-methylpentan-2-ol], the 50% inhibitory concentration (IC50) amounted to 15000 nM at human recombinant CYP3A4 (Table 1, read-out: CYP3A4 IC50) and 14 nM in data set [3] (setting [4]).
Regarding `CC(C)(C[C@@](O)(Cc1cc2nc(S(C)(=O)=O)ccc2[nH]1)C(F)(F)F)c1ccc(F)cc1C(N)=O` [5-Fluoro-2-[(R)-4,4,4-trifluoro-3-hydroxy-3-(5-methanesulfonyl-1H-pyrrolo[3,2-b]pyridin-2-ylmethyl)-1,1-dimethyl-butyl]benzamide], the 50% inhibitory concentration (IC50) was 7000 nM at human recombinant CYP3A4 (Table 1, read-out: CYP3A4 IC50) and 27 nM in data set [3].

By half-life is commonly meant how long it takes for the measured level to halve. For orientation: IC50 means the concentration needed to halve the response being measured. As a reminder, the solubility is the dissolved amount per volume that the medium holds. A high value points to much dissolved substance.
